Results published in US11679107B2 (Eisai R&D Management Co., Ltd., priority 2018, dated 2023).
Where two headings read alike, the source gives them in different places. Blank lines part the entries; values can stand above or below the compound they belong to.

What was measured:
[1] = system: Panc 05.04 cells (SF3b K700E mutant); assay: Cell proliferation and viability, CellTiter-Glo, 72 hours; assay type: cell-based; settings: for GI50: geometric mean
Method in brief: (§1)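 Cells grown in RPMI-1640 with 10% FBS (Panc 05.04 with added insulin, 15% FBS total) were exposed to an 11-point half-log dilution, typically 10 μM–100 pM, at 0.1% DMSO for 72 h at 37 °C. ATP content was read by CellTiter-Glo luminescence. Percent inhibition was set against a time-zero plate and DMSO vehicle wells, on a −100% (cidal) to 100% (uninhibited growth) scale.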

[2] = system: NCI-H1568 cells (high MCL1); assay: as above; assay type: cell-based; settings: for GI50: geometric mean
Method in brief: as §1

SF3b complexes = biological target: T1, SF3b complexes (Homo sapiens, UniProt O75533+Q7RTV0); assay: Scintillation proximity assay (SPA) with [3H]-labelled pladienolide probe; assay type: binding; settings: SF3B1 (WT); geometric mean; read-out: SPA-ATS GMean IC50 (nM) SF3B1 (WT)
T1 construct: endogenous in cells; host or cells: Nuclear extracts; A HeLa S3 extract preparation is described for the in vitro splicing assay
Method in brief: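 SF3b complexes captured from nuclear extracts on anti-SF3B1 antibody SPA beads; test compounds pre-incubated 30 min before 2.5 nM [3H]-pladienolide probe added, then 30 min incubation. Bound probe read by scintillation; values from non-linear regression of concentration–response curves.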

[3] = system: Ad2 variant pre-mRNAs spliced in HeLa S3 nuclear extracts; assay: In vitro splicing assay (IVS), RT-qPCR of spliced product; assay type: biochemical; settings: for IC50: geometric mean; for Ratio Ad2.1/2.2: ratio of IVS IC50 Ad2.1 to Ad2.2
Method in brief: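 Ad2 variant pre-mRNA (2 ng) with FTZΔi control RNA in HeLa S3 nuclear extract (8 μg) was pre-incubated with compound or DMSO for 15 min at 30 °C. Splicing ran 90 min at 30 °C after adding 0.5 mM ATP, creatine phosphate and MgCl2. Spliced product was quantified by TaqMan RT-qPCR, normalized to DMSO, and curve-fitted.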

[4] = 72 h, NCIH1568.1, -100% = cidal, 0% = static, 100% = uninhibited growth
[5] = NCI-H1568, read-out: CTGlo-ATS GMean GI50 (nM) 72 h NCIH1568.1, 72 h, NCIH1568.1
[6] = PANC0504.1 cells, 72 h, −100% cidal, 0% static, 100% maximal growth
[7] = NCI-H1568, read-out: CTGlo-ATS GMean GI50 (nM) 72 h NCIH1568.1, NCIH1568.1 cells, 72 h
[8] = NCIH1568.1 cells, 72 h, −100% cidal, 0% static, 100% maximal growth
[9] = Panc 05.04, 72 h, read-out: CTGlo-ATS GMean GI50 (nM) 72 h PANC0504.1, PANC0504.1 cells, 72 h
[10] = NCI-H1568, 72 h, read-out: CTGlo-ATS GMean GI50 (nM) 72 h NCIH1568.1, NCIH1568.1 cells, 72 h
[11] = Ad2.1 pre-mRNA substrate, read-out: qPCR-IVS-ATS GMean IC50 (nM) Ad2.1
[12] = Ad2.2 pre-mRNA substrate, read-out: qPCR-IVS-ATS GMean IC50 (nM) Ad2.2

Structure (SMILES): C/C(=C\c1cccc(COC(=O)N2CCC3(COC3)C2)c1)[C@H]1OC(=O)C[C@H](O)CC[C@H](C)[C@@H](OC(=O)N2CCN(C)CC2)/C=C/[C@@H]1C [Compound 255, [3-[(E)-2-[(2S,3S,4E,6R,7S,10R)-10-hydroxy-3,7-dimethyl-6-(4-methylpiperazine-1-carbonyl)oxy-12-oxo-1-oxacyclododec-4-en-2-yl]prop-1-enyl]phenyl]methyl 2-oxa-7-azaspiro[3.4]octane-7-carboxylate]
CTGlo-ATS Mean MinResponse % 72 h PANC0504.1 ([1]; 72 h, PANC0504.1, -100% = cidal, 0% = static, 100% = uninhibited growth): −61.401%
GI50 ([1]; Panc 05.04, read-out: CTGlo-ATS GMean GI50 (nM) 72 h PANC0504.1, 72 h, PANC0504.1): 65.8 nM
CTGlo-ATS Mean MinResponse % 72 h NCIH1568.1 [2, 4]: −24.942%
GI50 [2, 5]: 67.6 nM
IC50 (SF3b complexes): 7.32 nM

Structure (SMILES): C/C(=C\c1cc(F)cc(N2CCN(S(=O)(=O)c3cn(C)cn3)CC2)c1)[C@H]1OC(=O)C[C@H](O)CC[C@H](C)[C@@H](OC(=O)N2CCN(C)CC2)/C=C/[C@@H]1C [Compound 113]
CTGlo-ATS Mean MinResponse % 72 h PANC0504.1 [1, 6]: −80.966%
GI50 ([1]; Panc 05.04, read-out: CTGlo-ATS GMean GI50 (nM) 72 h PANC0504.1, PANC0504.1 cells, 72 h): 49 nM
GI50 [2, 7]: 41.8 nM
CTGlo-ATS Mean MinResponse % 72 h NCIH1568.1 [2, 8]: −73.107%
IC50 (SF3b complexes): 8.2 nM

GI50 [1, 9]: 5.85 nM
GI50 [2, 10]: 6.95 nM
IC50 (SF3b complexes): 2.87 nM
Structure (SMILES): COCCN1CCN(c2cc(F)cc(/C=C(\C)[C@H]3OC(=O)C[C@H](O)CC[C@H](C)[C@@H](OC(=O)N4CCN(C)CC4)/C=C/[C@@H]3C)c2)CC1=O [Compound 105]
CTGlo-ATS Mean MinResponse % 72 h PANC0504.1 [1, 6]: −90.949%
CTGlo-ATS Mean MinResponse % 72 h NCIH1568.1 [2, 8]: −68.464%

GI50 [1, 9]: 13.9 nM
GI50 [2, 10]: 12.8 nM
IC50 (SF3b complexes): 28 nM
Structure (SMILES): C/C(=C\c1cc(F)cc(N2CCN(S(=O)(=O)c3cnn(C)c3)CC2)c1)[C@H]1OC(=O)C[C@H](O)CC[C@H](C)[C@@H](OC(=O)N2CCN(C)CC2)/C=C/[C@@H]1C [Compound 111]
CTGlo-ATS Mean MinResponse % 72 h PANC0504.1 [1, 6]: −71.803%
CTGlo-ATS Mean MinResponse % 72 h NCIH1568.1 [2, 8]: −81.303%

Structure (SMILES): C/C(=C\c1cc(F)cc(N2CCN(C(=O)Cn3cccn3)CC2)c1)[C@H]1OC(=O)C[C@H](O)CC[C@H](C)[C@@H](OC(=O)N2CCN(C)C(C)(C)C2)/C=C/[C@@H]1C [Compound 232, [(2S,3S,4E,6R,7S,10R)-2-[(E)-1-[3-fluoro-5-[4-(2-pyrazol-1-ylacetyl)piperazin-1-yl]phenyl]prop-1-en-2-yl]-10-hydroxy-3,7-dimethyl-12-oxo-1-oxacyclododec-4-en-6-yl] 3,3,4-trimethylpiperazine-1-carboxylate]
CTGlo-ATS Mean MinResponse % 72 h NCIH1568.1 [2, 4]: −78.974%
GI50 [2, 5]: 4.67 nM
IC50 [3, 11]: 15.3 nM
IC50 [3, 12]: 9.5 nM
Ratio Ad2.1/2.2 [3]: 1.613
IC50 (SF3b complexes): 5.01 nM

Structure (SMILES): COc1ccc(CNC(=O)O[C@H]2/C=C/C(C)C(/C(C)=C/c3cc(F)cc(N4CCN(C(=O)Cn5cccn5)CC4)c3)OC(=O)CC(O)CC[C@@H]2C)cc1 (stereo in doubt) [Compound 226, [(2R,3R,4E,6R,7S,10S)-2-[(E)-1-[3-fluoro-5-[4-(2-pyrazol-1-ylacetyl)piperazin-1-yl]phenyl]prop-1-en-2-yl]-10-hydroxy-3,7-dimethyl-12-oxo-1-oxacyclododec-4-en-6-yl] N-[(4-methoxyphenyl)methyl]carbamate]
CTGlo-ATS Mean MinResponse % 72 h NCIH1568.1 [2, 4]: −64.963%
GI50 [2, 5]: 34.7 nM
IC50 [3, 11]: 8.74 nM
IC50 [3, 12]: 102 nM
Ratio Ad2.1/2.2 [3]: 0.086
IC50 (SF3b complexes): 1.17 nM

Structure (SMILES): C/C(=C\c1cc(F)cc(N(C)C2CCN(C(=O)c3ccccc3)CC2)c1)[C@H]1OC(=O)C[C@H](O)CC[C@H](C)[C@@H](OC(=O)N2CCN(C)CC2)/C=C/[C@@H]1C [Compound 180]
GI50 [2, 7]: 14.4 nM
CTGlo-ATS Mean MinResponse % 72 h NCIH1568.1 [2, 8]: −86.471%
IC50 [3, 11]: 29.9 nM
IC50 [3, 12]: 24.6 nM
IC50 (SF3b complexes): 42.3 nM

Structure (SMILES): C/C(=C\c1cc(F)c2nnn([C@H](C)CO)c2c1)[C@H]1OC(=O)C[C@H](O)CC[C@H](C)[C@@H](OC(=O)N2CCN(C)CC2)/C=C/[C@@H]1C [Compound 150]
GI50 [2, 7]: 2.19 nM
CTGlo-ATS Mean MinResponse % 72 h NCIH1568.1 [2, 8]: −68.000%
IC50 [3, 11]: 8.58 nM
IC50 [3, 12]: 11 nM
IC50 (SF3b complexes): 1.32 nM

Structure (SMILES): C/C(=C\c1cc(F)cc(OC2CCN(S(C)(=O)=O)CC2)c1)[C@H]1OC(=O)C[C@H](O)CC[C@H](C)[C@@H](OC(=O)N2CCN(C)CC2)/C=C/[C@@H]1C [Compound 194]
GI50 [2, 7]: 6.73 nM
CTGlo-ATS Mean MinResponse % 72 h NCIH1568.1 [2, 8]: −75.631%
IC50 [3, 11]: 30.1 nM
IC50 [3, 12]: 25.9 nM
IC50 (SF3b complexes): 10.7 nM

Structure (SMILES): C/C(=C\c1cc(F)cc(N2CCN(C(=O)Cn3cccn3)CC2)c1)[C@H]1OC(=O)C[C@H](O)CC[C@H](C)[C@@H](OC(=O)N2CCN(Cc3cccc(O)c3)CC2)/C=C/[C@@H]1C [Compound 251, [(2S,3S,4E,6R,7S,10R)-2-[(E)-1-[3-fluoro-5-[4-(2-pyrazol-1-ylacetyl)piperazin-1-yl]phenyl]prop-1-en-2-yl]-10-hydroxy-3,7-dimethyl-12-oxo-1-oxacyclododec-4-en-6-yl] 4-[(3-hydroxyphenyl)methyl]piperazine-1-carboxylate]
CTGlo-ATS Mean MinResponse % 72 h NCIH1568.1 [2, 4]: −87.236%
GI50 [2, 5]: 13.4 nM
IC50 [3, 11]: 49.7 nM
IC50 [3, 12]: 28.1 nM
Ratio Ad2.1/2.2 [3]: 1.765
IC50 (SF3b complexes): 52.4 nM

Structure (SMILES): C/C(=C\c1cc(F)c2nnn(C3(C)CCOCC3)c2c1)[C@H]1OC(=O)C[C@H](O)CC[C@H](C)[C@@H](OC(=O)N2CCN(C)CC2)/C=C/[C@@H]1C [Compound 156]
GI50 [2, 10]: 1.27 nM
CTGlo-ATS Mean MinResponse % 72 h NCIH1568.1 [2, 8]: −87.369%
IC50 [3, 11]: 8.37 nM
IC50 [3, 12]: 7.91 nM
IC50 (SF3b complexes): 3.95 nM

Structure (SMILES): C/C(=C\c1cc(F)cc(N2CCCNC2=O)c1)[C@H]1OC(=O)C[C@H](O)CC[C@H](C)[C@@H](OC(=O)N2CCN(C)CC2)/C=C/[C@@H]1C [Compound 79]
GI50 [2, 10]: 4.01 nM
CTGlo-ATS Mean MinResponse % 72 h NCIH1568.1 [2, 8]: −72.802%
IC50 [3, 11]: 18 nM
IC50 [3, 12]: 12.3 nM
IC50 (SF3b complexes): 2.14 nM

Structure (SMILES): C/C(=C\c1cc(F)c2nnn(C3CCN(S(C)(=O)=O)CC3)c2c1)[C@H]1OC(=O)C[C@H](O)CC[C@H](C)[C@@H](OC(=O)N2CCN(C)CC2)/C=C/[C@@H]1C [Compound 157]
GI50 [2, 7]: 1.29 nM
CTGlo-ATS Mean MinResponse % 72 h NCIH1568.1 [2, 8]: −90.424%
IC50 [3, 11]: 8.47 nM
IC50 [3, 12]: 7.49 nM
IC50 (SF3b complexes): 2.27 nM

Structure (SMILES): C/C(=C\c1cc(F)cc(N(C)C2CCN(C(=O)c3cn(C)cn3)CC2)c1)[C@H]1OC(=O)C[C@H](O)CC[C@H](C)[C@@H](OC(=O)N2CCN(C)CC2)/C=C/[C@@H]1C [Compound 190]
GI50 [2, 7]: 19.8 nM
CTGlo-ATS Mean MinResponse % 72 h NCIH1568.1 [2, 8]: −69.142%
IC50 [3, 11]: 33.5 nM
IC50 [3, 12]: 15.7 nM
IC50 (SF3b complexes): 6.55 nM

Structure (SMILES): C/C(=C\c1cc(F)cc(N(C)C2CCN(S(=O)(=O)c3cn(C)cn3)CC2)c1)[C@H]1OC(=O)C[C@H](O)CC[C@H](C)[C@@H](OC(=O)N2CCN(C)CC2)/C=C/[C@@H]1C [Compound 184]
GI50 [2, 7]: 59.8 nM
CTGlo-ATS Mean MinResponse % 72 h NCIH1568.1 [2, 8]: −85.535%
IC50 [3, 11]: 18.1 nM
IC50 [3, 12]: 11.6 nM
IC50 (SF3b complexes): 14.4 nM

Structure (SMILES): C/C(=C\c1cc(F)cc(N2CCN(C(=O)[C@@H]3CCOC3)CC2)c1)[C@H]1OC(=O)C[C@H](O)CC[C@H](C)[C@@H](OC(=O)N2CCN(C)CC2)/C=C/[C@@H]1C [Compound 152]
GI50 [2, 10]: 1.51 nM
CTGlo-ATS Mean MinResponse % 72 h NCIH1568.1 [2, 8]: −80.509%
IC50 [3, 11]: 16.2 nM
IC50 [3, 12]: 8.39 nM
IC50 (SF3b complexes): 3.83 nM

Structure (SMILES): CCN(c1cc(F)cc(/C=C(\C)[C@H]2OC(=O)C[C@H](O)CC[C@H](C)[C@@H](OC(=O)N3CCN(C)CC3)/C=C/[C@@H]2C)c1)C1CCN(S(C)(=O)=O)CC1 [Compound 175]
GI50 [2, 10]: 9.49 nM
CTGlo-ATS Mean MinResponse % 72 h NCIH1568.1 [2, 8]: −99.134%
IC50 [3, 11]: 9.5 nM
IC50 [3, 12]: 8.12 nM
IC50 (SF3b complexes): 5.83 nM
